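Five concentrations, 48 hours, 96-well plates. GI50 = concentration required for 50% inhibition of growth. TGI marks complete inhibition of growth.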
How the values were obtained:
Experiment in all cases: DTP human tumour cell line panel, 48 h
[1] = system: SK-OV-3 ovarian
[2] = system: IGROV1 ovarian
[3] = system: A549 NSCLC
[4] = system: SK-MEL-28 melanoma
[5] = system: HOP-92 NSCLC
[6] = system: SK-MEL-5 melanoma
[7] = system: SF-539 CNS
[8] = system: SNB-75 CNS
[9] = system: MDA-MB-468 breast
[10] = system: HT29 colon
[11] = system: BT-549 breast
[12] = system: MOLT-4 leukemia
[13] = system: 786-0 renal
[14] = system: SK-MEL-2 melanoma
[15] = system: MCF7 breast
[16] = system: CAKI-1 renal
[17] = system: HS 578T breast
[18] = system: ACHN renal
[19] = system: UO-31 renal
[20] = system: SF-268 CNS
[21] = system: HCT-116 colon
[22] = system: MDA-MB-231 breast
[23] = system: U251 CNS
[24] = system: SF-295 CNS
[25] = system: NCI-H23 lung
[26] = system: NCI/ADR-RES ovarian
[27] = system: SN12C renal
[28] = system: CCRF-CEM leukemia
[29] = system: KM12 colon
[30] = system: EKVX NSCLC
[31] = system: HOP-62 NSCLC
[32] = system: TK-10 renal
[33] = system: K-562 leukemia
[34] = system: RXF 393 renal
[35] = system: M14 melanoma
[36] = system: PC-3 prostate
[37] = system: A498 renal
[38] = system: UACC-257 melanoma
[39] = system: OVCAR-3 ovarian
[40] = system: NCI-H460 lung
[41] = system: HL-60(TB) leukemia
[42] = system: LOX IMVI melanoma
[43] = system: OVCAR-5 ovarian
[44] = system: OVCAR-4 ovarian
[45] = system: MALME-3M melanoma
[46] = system: NCI-H226 lung
[47] = system: OVCAR-8 ovarian
[48] = system: HCC-2998 colon
[49] = system: HCT-15 colon
[50] = system: COLO 205 colon
[51] = system: MDA-MB-435
[52] = system: SW-620 colon
[53] = system: SNB-19 CNS
[54] = system: NCI-H522 lung
[55] = system: T-47D breast
[56] = system: RPMI-8226 leukemia
[57] = system: DU-145 prostate
[58] = system: UACC-62 melanoma

`O=C(c1ccc(OCCN2CCOCC2)cc1)C1[C@H](c2ccc(Cl)cc2)[C@@H](c2ccccc2)NC12C(=O)Nc1ccc(Br)cc12` (stereo partly specified) showed a GI50 [1] of 4.46 µM, a TGI [1] of over 16.3 µM and a GI50 [2] of 3.32 µM. For the same compound, the TGI [2] was 9.74 µM, the GI50 [3] was 4.27 µM and the TGI [3] was over 16.3 µM. The GI50 [4] was 2.7 µM, the TGI [4] was 5.08 µM and the GI50 [5] was 2.35 µM. The TGI [5] was 6.69 µM, the GI50 [6] was 2.69 µM and the TGI [6] was 5.11 µM. It also gave a GI50 [7] of 2.73 µM, a TGI [7] of 5.19 µM and a GI50 [8] of 2.37 µM. It also gave a TGI [8] of over 16.3 µM, a GI50 [9] of 2.83 µM and a TGI [9] of 7.65 µM. The GI50 [10] was 2.49 µM, the TGI [10] was 5.38 µM and the GI50 [11] was 3.44 µM. For the same compound, the TGI [11] was 8.33 µM, the GI50 [12] was 2.9 µM and the TGI [12] was 10.2 µM. The GI50 [13] was 2.95 µM, the TGI [13] was 6.69 µM and the GI50 [14] was 2.32 µM. It also gave a TGI [14] of 4.8 µM, a GI50 [15] of 2.92 µM and a TGI [15] of 10.2 µM. It also gave a GI50 [16] of 3 µM, a TGI [16] of over 16.3 µM and a GI50 [17] of 2.58 µM. For the same compound, the TGI [17] was 7.19 µM, the GI50 [18] was 3.84 µM and the TGI [18] was 14.3 µM. For the same compound, the GI50 [19] was 2.57 µM, the TGI [19] was 7.86 µM and the GI50 [20] was 3.66 µM. For the same compound, the TGI [20] was over 16.3 µM, the GI50 [21] was 2.63 µM and the TGI [21] was 5.45 µM. For the same compound, the GI50 [22] was 2.66 µM, the TGI [22] was 5.09 µM and the GI50 [23] was 2.6 µM. The TGI [23] was 5.52 µM, the GI50 [24] was 2.4 µM and the TGI [24] was 4.94 µM. It also gave a GI50 [25] of 2.87 µM, a TGI [25] of 6.76 µM and a GI50 [26] of 3.87 µM. The TGI [26] was 12.1 µM, the GI50 [27] was 2.35 µM and the TGI [27] was 4.53 µM. The GI50 [28] was 4.42 µM, the TGI [28] was 12.8 µM and the GI50 [29] was 2.98 µM. For the same compound, the TGI [29] was 7.26 µM, the GI50 [30] was 2.71 µM and the TGI [30] was 11.2 µM. For the same compound, the GI50 [31] was 2.83 µM, the TGI [31] was 6.58 µM and the GI50 [32] was 3.62 µM. The TGI [32] was 11.1 µM, the GI50 [33] was 3.87 µM and the TGI [33] was over 16.3 µM. For the same compound, the GI50 [34] was 1.84 µM, the TGI [34] was 4.57 µM and the GI50 [35] was 2.56 µM. The TGI [35] was 5.44 µM, the GI50 [36] was 2.96 µM and the TGI [36] was 9.34 µM. It also gave a GI50 [37] of 3.05 µM, a TGI [37] of 7.55 µM and a GI50 [38] of 3.69 µM. For the same compound, the TGI [38] was 13 µM, the GI50 [39] was 2.56 µM and the TGI [39] was 6.91 µM. For the same compound, the GI50 [40] was 2.8 µM, the TGI [40] was 5.59 µM and the GI50 [41] was 4.2 µM. For the same compound, the TGI [41] was 12 µM, the GI50 [42] was 2.43 µM and the TGI [42] was 4.59 µM. It also gave a GI50 [43] of 2.95 µM, a TGI [43] of 9.56 µM and a GI50 [44] of 4.33 µM. The TGI [44] was over 16.3 µM, the GI50 [45] was 2.39 µM and the TGI [45] was 5.09 µM. For the same compound, the GI50 [46] was 2.94 µM, the TGI [46] was 7.82 µM and the GI50 [47] was 4.37 µM. The TGI [47] was over 16.3 µM, the GI50 [48] was 2.61 µM and the TGI [48] was 5.37 µM. The GI50 [49] was 2.69 µM, the TGI [49] was 6.23 µM and the GI50 [50] was 2.52 µM. For the same compound, the TGI [50] was 4.93 µM, the GI50 [51] was 3.17 µM and the TGI [51] was 7.28 µM. For the same compound, the GI50 [52] was 2.78 µM, the TGI [52] was 5.68 µM and the GI50 [53] was 4.46 µM. It also gave a TGI [53] of over 16.3 µM, a GI50 [54] of 3.39 µM and a TGI [54] of 8.58 µM. For the same compound, the GI50 [55] was 3.09 µM, the TGI [55] was over 16.3 µM and the GI50 [56] was 4.05 µM. For the same compound, the TGI [56] was 16.1 µM, the GI50 [57] was 3.91 µM and the TGI [57] was 11.8 µM. The GI50 [58] was 2.22 µM and the TGI [58] was 4.46 µM.
